Test results: US12233041B2, “Disulfonate stilbenes for use in the treatment of proliferative diseases” (UNIVERSITÉ DE NANTES, priority 2018, dated 2025)
Entries after “also recorded” stand apart in the source; their conditions may differ.

Legend:
[1] = target: T1, HsRad51 (Homo sapiens, UniProt Q06609); experiment: RAD51 oligomerization by SDS-PAGE gel after crosslink; type: biochemical; conditions: 2.5 μM HsRad51, disuccinimidyl suberate crosslink, SDS-PAGE/Western blot; FIG. 1
T1 sequence (Q06609 1-339): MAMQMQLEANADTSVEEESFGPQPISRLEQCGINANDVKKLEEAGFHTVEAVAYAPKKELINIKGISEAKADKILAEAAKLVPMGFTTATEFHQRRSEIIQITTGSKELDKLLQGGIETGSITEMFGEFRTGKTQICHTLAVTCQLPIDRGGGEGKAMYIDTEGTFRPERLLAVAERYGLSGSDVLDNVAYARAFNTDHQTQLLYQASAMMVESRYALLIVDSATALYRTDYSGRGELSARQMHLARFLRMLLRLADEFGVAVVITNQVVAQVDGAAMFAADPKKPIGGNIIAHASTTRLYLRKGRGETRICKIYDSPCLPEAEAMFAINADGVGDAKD
Description: The reaction was performed at room temperature. 2.5 μm HsRad51 was incubated with the indicated concentrations of tested compounds for 10 min in a buffer containing 20 mm sodium phosphate, 50 mm NaCl, 1 mm MgCl 2, and 1 mm ATP. The cross-linking reactions were initiated by the addition of disuccinimidyl suberate (50 μm) and allowed to proceed for 30 min. Reactions were quenched by the addition of Tris-HCl (pH 7.5, final concentration: 50 mm) followed by subsequent incubations for 15 min. The products were then separated by 12% SDS polyacrylamide gel electrophoresis and detected by Western blot with mouse monoclonal anti-Rad51 antibody (NeoMarkers) and anti-mouse Alexa-Fluor 700-conjugated secondary antibody (Molecular Probes, Eugene, OR). The cross-linked dimer was quantified by an Odyssey Infrared Imaging System scanner (Li-Cor Biosciences) (Martinez, S. F. et al., “Targeting human Rad51 by specific DNA aptamers induces inhibition of homologous recombination”, Biochimie, December 2010, Vol. 92, No. 12, pp. 1832-1838).
The SDS-PAGE electrophoresis after crosslink maintains and immobilizes the RAD51 protein complexes and thus allows visualization of the degree of oligomerization (polymer formation) of the RAD51 protein. The effect of RAD51 protein inhibitors B-1, B-2, B-3, DIDS and X-4 on this key step of RAD51 protein recombinase activity has thus been evaluated. The results are presented on FIG. 1.

[2] = target: T2, Rad51 (Homo sapiens, UniProt Q06609); experiment: RAD51 nucleofilament formation by Bio-Layer Interferometry (BLItz), binding of Rad51 to ssDNA
T2 sequence (Q06609 1-339): T1 sequence (Q06609 1-339)
Description: The binding of Rad51 to ssDNA was monitored and quantified by Bio-Layer Interferometry technology using the BLItz platform (FortéBio Inc.). The procedure includes four steps: (1) the baseline in buffer A containing 1×PBS, 10 mM MgCl2 and 0.0075% Tween20 was recorded for 20 s; (2) loading and binding of Rad51 were measured for 40 s using 1.5 μM Rad51 and 1 mM ATP in buffer A; (3) the dissociation of Rad51 from ssDNA was recorded for 20 s in buffer A; (4) the ssDNA biosensor was regenerated using baths of 50 mM NaOH. Except for the step 2, which used 4 μL drop of the protein sample, the steps 1, 3 and 4 used 250 μL solutions in 0.5 mL tube. The measurement parameters were as follows: room temperature measurement and stirring speed of 2200 rpm. To investigate the effect of CSB and analogs to the ssDNA binding of Rad51, the molecule was included in the protein sample of the step 2 at the indicated concentrations and incubated for 5 min before loading on the biosensor. (Normand, A. et al., “Identification and characterization of human Rad51 inhibitors by screening of an existing drug library.”, Biochemical Pharmacology, October 2014, Vol. 91, No. 3, pp. 293-300).
A test based on interferometry (Blitz®, Fortebio) allows the measure of the association kinetics of RAD51 protein with a single-stranded DNA immobilized on a biosensor support in the presence or absence of an inhibitor. The effect of compounds B-1, B-2, B-3, BPQ and X-4 on RAD51 nucleofilament formation has been evaluated in presence of increasing doses of inhibitors. The results are presented on FIG. 2.

[3] = system: RAD51 foci in DU-145 cells; experiment: Rad51 foci quantification by immunofluorescence; type: cell-based; conditions: DU-145, B-2 20 μM + cisplatin 30 μM; FIG. 8
Description: DU-145 cells were grown on coverslips (Life Technologies) at a density of 5×10^3 cells per well in medium (RPMI) supplemented with 10% fetal bovine serum (Gibco-Invitrogen). Cells were treated with Cisplatin at 30 μM for 1 hour in presence or in absence of RAD51 inhibitor B-2 at 20 μM, and then the medium was replaced with molecule-free medium. After 18 h, cells were washed once in PBS for 5 min and fixed with ethanol absolute for 25 min.
The fixed cells were incubated for 1 h in the PBS buffer containing 1:1000 diluted anti-RAD51 antibody at room temperature. After three 5-min washes in PBS, slides were incubated with PBS solution containing the secondary antibody conjugated with AlexaFluor 555 ([…]) for 45 min in dark room. […] The images were recorded with NIS Element software (Version 3.6, Nikon, Tokyo, Japan). The quantification of RAD51 foci was processed with a program derived from Fiji-ImageJ software (NIH, Bethesda, Maryland, USA). […]
The treatment with Cisplatin alone induces a high level of RAD51 foci, whereas this level is decreased when the treatment is associated with B-2 20 μM. After the quantification of the number of RAD51 foci per cell, the number of cells containing more than 20 RAD51 foci was determined.

Structure (SMILES): N#Cc1ccc(/C=C/c2ccc(C#N)cc2S(=O)(=O)[O-])c(S(=O)(=O)[O-])c1.[Na+].[Na+] [B-2, Sodium (E)-6,6′-(ethene-1,2-diyl)bis(3-cyanobenzenesulfonate)]
- oligomerization state of RAD51 protein [1]: significant reduction; also recorded: very strongly diminished
- activity on nucleofilament formation compared with reference molecule BPQ ([2]; FIG. 2): comparable to or even better
- effect on nucleofilament formation compared with DIDS ([2]; high dose (50 μM)): same effect
- formation of RAD51 protein nucleofilament (relative binding of RAD51 protein with single-stranded DNA) ([2]; increasing doses of inhibitors, FIG. 2): inhibit; also recorded: very strongly diminished
- activity on nucleofilament formation compared with reference molecule DIDS ([2]; low dose (5 μM)): comparable
- decrease of level of RAD51 foci mediated by cisplatin (cells containing more than 20 RAD51 foci) [3]: about 20%
